Laboratory results from US11434535B2, “Centromere/kinetochore protein genes for cancer diagnosis, prognosis and treatment selection” (The Regents of the University of California, priority 2014, dated 2022).
Entries after “also recorded” stand apart in the source; their conditions may differ.

How the values were obtained:
ER+ breast cancer = assay: K-M Plotter meta-analysis on chemo-sensitivity, ER+ breast cancer relapse-free survival; conditions: ER+ breast cancer patients under the named therapy
Description: (§1) To address small sample sizes in individual datasets when predicting drug sensitivity, we performed meta-analysis on chemo-sensitivity for several cancer types using K-M Plotter.
(§2) For meta-analysis using K-M Plotter for prognosis, we chose to use the top CES terile as high CES group, and the rest as low CES group. For meta-analysis on sensitivity to adjuvant therapies using K-M Plotter, we chose to use automatically computed best performing CES threshold for patient stratification in all dataset to increase detection sensitivity, even though tertile or median method gave similar results with statistical significance for many datasets. The K-M Plotter software only incorporates genes with probes present on both U133A+B to ensure comparability between datasets for meta-analysis, thus it excluded 7 CEN/KT genes including CENP-H, -W, -L, -K, -P, SPC24 and NUF2, of which 5 are also CES genes. Therefore, we used the 9 remaining CES genes, e.g., CENP-A, HJURP, MIS18B, CENP-N, CENP-M, CENP-U, ZWINT, NDC80, and SPC25, as a simplified version of the CES when using K-M Plotter.

[1] = system: CCLE (Cancer Cell Line Encyclopedia) cell lines; assay: CCLE cell lines: IC50 of Topo I inhibitors versus CES value; type: cell-based; conditions: CCLE cell lines binned into CES quartiles
Description: We mined the Cancer Cell Line Encyclopedia (CCLE) data, which contains information on both drug treatment and gene expression (Barretina et al., 2012). CCLE cell lines were binned into quartiles according to their CES values, we compared the top and bottom CES quartiles for the IC50 of the Topo I inhibitors and DNA damaging agents irinotecan and topotecan.
The Statistical Analysis of Microarrays (SAM) Excel add-on package (the website at www-stat.stanford.edu/˜tibs/SAM/) was used to identify differences between normal and tumor tissues in expression levels of CEN/KT genes (FDR≤0.05 and fold changes ≥2). Sample clustering was performed on the CEN/KT gene expression profiles using hierarchical clustering in Cluster 3.0 and Java Treeview 1.1.6r4 to group samples by centroid. For CCLE drug sensitivity, analysis was performed in Excel (Microsoft) and GraphPad. Kaplan-Meier survival curves for the CES system were generated for patients to evaluate differences in disease-free survival (DFS), stratified into groups of high (upper tertile), intermediate (middle tertile) and low (lower tertile) CES to evaluate differences in disease-free survival (DFS). […] Five-year survival was analyzed by chi-square test for significance.

[2] = system: late stage ovarian cancers; assay: K-M Plotter meta-analysis on chemo-sensitivity, ovarian cancer overall survival; type: in vivo, human; conditions: ovarian cancer patients, mostly late stage, under the named adjuvant therapy
Description: as §1, §2

gastric cancers = assay: K-M Plotter meta-analysis on chemo-sensitivity, gastric cancer; type: in vivo, human; conditions: gastric cancer patients
Description: as §1, §2

CC/C(=C(\c1ccccc1)c1ccc(OCCN(C)C)cc1)c1ccccc1 [tamoxifen]
HR associated with high CES, relapse-free survival (RFS) (ER+ breast cancer): 1.80

CC[C@@]1(O)C(=O)OCc2c1cc1n(c2=O)Cc2cc3c(CN(C)C)c(O)ccc3nc2-1 [topotecan]
average IC50, top CES quartile compared to bottom CES quartile [1]: significantly lower IC50s; also recorded: significantly more sensitive
HR associated with high CES, overall survival [2]: .63

O=c1[nH]cc(F)c(=O)[nH]1 [5-FU, 5-fluorouracil]
prediction power of CES for sensitivity (gastric cancers): no significant prediction power

CCc1c2c(nc3ccc(OC(=O)N4CCC(N5CCCCC5)CC4)cc13)-c1cc3c(c(=O)n1C2)COC(=O)[C@]3(O)CC [irinotecan]
average IC50, top CES quartile compared to bottom CES quartile [1]: significantly lower IC50s; also recorded: significantly more sensitive
